Test results published in patent US12454530B2, “Amido cyclohexane acid derivatives as LPA receptor inhibitors” (CHIESI FARMACEUTICI S.P.A., priority 2020, dated 2025).
pIC50: −log10 of the molar value.

Experiments:
BSEP = BSEP (Homo sapiens (Human), UniProt O95342); test: BSEP inhibition: biliary clearance of Taurocolic Acid in sandwich-cultured human hepatocytes; format: in vitro ADME; settings: sandwich-cultured cryopreserved human hepatocytes, probe Taurocolic Acid (TCA); 50 μM test compound, 10 μM TCA, human hepatocytes sandwich configuration
Chain of BSEP (O95342 whole entry): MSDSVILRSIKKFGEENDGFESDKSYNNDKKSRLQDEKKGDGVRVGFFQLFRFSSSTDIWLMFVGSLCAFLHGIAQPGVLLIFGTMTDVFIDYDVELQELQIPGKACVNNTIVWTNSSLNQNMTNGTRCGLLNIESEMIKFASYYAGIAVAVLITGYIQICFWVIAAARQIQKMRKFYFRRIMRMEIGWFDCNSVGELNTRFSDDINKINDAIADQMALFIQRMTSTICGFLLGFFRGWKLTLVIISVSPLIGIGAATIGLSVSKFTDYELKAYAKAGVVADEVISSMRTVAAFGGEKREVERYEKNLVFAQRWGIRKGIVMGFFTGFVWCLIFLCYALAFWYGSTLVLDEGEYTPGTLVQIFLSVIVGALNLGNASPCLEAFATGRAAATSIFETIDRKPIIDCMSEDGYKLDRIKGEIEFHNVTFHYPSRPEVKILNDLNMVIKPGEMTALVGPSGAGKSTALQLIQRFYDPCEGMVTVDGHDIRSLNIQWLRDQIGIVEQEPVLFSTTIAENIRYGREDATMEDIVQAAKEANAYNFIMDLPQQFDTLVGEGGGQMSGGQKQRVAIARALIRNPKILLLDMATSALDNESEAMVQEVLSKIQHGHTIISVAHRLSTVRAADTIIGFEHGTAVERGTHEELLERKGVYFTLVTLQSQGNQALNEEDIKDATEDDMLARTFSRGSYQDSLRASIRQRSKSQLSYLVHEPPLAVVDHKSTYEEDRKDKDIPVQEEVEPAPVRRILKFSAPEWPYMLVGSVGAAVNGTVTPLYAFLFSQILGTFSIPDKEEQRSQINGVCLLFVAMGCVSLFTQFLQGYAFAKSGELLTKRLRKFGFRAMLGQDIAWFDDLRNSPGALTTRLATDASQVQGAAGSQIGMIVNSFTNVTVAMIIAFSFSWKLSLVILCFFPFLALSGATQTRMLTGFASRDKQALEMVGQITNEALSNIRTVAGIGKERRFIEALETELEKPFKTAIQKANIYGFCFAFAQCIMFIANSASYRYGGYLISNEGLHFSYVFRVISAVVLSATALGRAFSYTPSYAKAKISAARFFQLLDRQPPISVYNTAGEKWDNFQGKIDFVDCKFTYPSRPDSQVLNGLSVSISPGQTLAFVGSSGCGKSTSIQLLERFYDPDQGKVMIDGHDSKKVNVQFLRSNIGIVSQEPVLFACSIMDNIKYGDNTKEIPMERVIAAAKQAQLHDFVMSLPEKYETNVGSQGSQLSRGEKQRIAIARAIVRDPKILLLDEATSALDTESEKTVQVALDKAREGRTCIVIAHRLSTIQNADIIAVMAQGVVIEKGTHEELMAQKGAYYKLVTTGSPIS
Method: BSEP inhibition was evaluated using human hepatocytes cultured between two layer of collagen (sandwich configuration). In this culture condition, hepatocytes express relevant transporters including BSEP and retain the bile canalicular structure. An inhibition of the biliary clearance of Taurocolic Acid (TCA), a known BSEP substrate, was used to assess BSEP interaction.
BSEP inhibition was evaluated using cryopreserved human hepatocytes (Plateable Cryopreserved Human Hepatocytes, BIOIVT) cultured for 5 day between two layer of collagen (sandwich configuration). In this culture condition, hepatocytes express relevant transporters including BSEP and retain the bile canalicular structure.
On day 5 of culture, hepatic cells are ready for the assay and the biliary clearance of Taurocolic Acid (TCA), a known BSEP substrate, can be estimated in presence and in absence of compound of interest.
The sample solution was prepared dissolving test compound and TCA in DMSO and then diluted in the Assay Buffer: Hank's Balance Salt Solution (HBSS+) warmed at 37° C. before use, to give the 10 μM TCA working solution with and without 50 μM of test compound. Hepatocytes were incubated for 10 minutes with these working solutions allowing TCA to be excreted into bile. At the end of incubation, the working solution was aspirated, and the content of the bile was collected through the addition of HBSS Modified without Ca2+/Mg2+(HBSS−). The presence of Ca2+ in the buffer is required to maintain the integrity of the tight junctions, the diffusional barrier between the canalicular lumen and extracellular space. Instead, incubation of cells in Ca2+-free buffer disrupts the tight junctions and opens the bile canalicular structures, allowing the bile content to be released and collect for HPLC-MS/MS analysis.
The in vitro biliary clearance of TCA incubated with and without test compounds is calculated according to the following formula:
where • Acc. Bile=(TCA amount in HBSS (−) buffer samples (pmol/mg protein)*Volume of each samples (mL))/Protein content per well (mg) • AUC=Incubation time (min)*T0 Concentration. T0 concentration is the initial TCA concentration in the medium.
The inhibition of BSEP was calculated as percentage of inhibition of TCA biliary clearance in presence of compound of interest, according to the following formula: BSEP inhibition %=100−(TCA ClBil with test compound*100)
TCA ClBil without test compound.

[1] = Permeability on Caco-2 cells monolayers; format: in vitro ADME; settings: human, with Elacridar 10 µM (PgP inhibitor), Papp A>B with PgP inhibitor Elacridar, 10 μM compound, read-out: Passive Permeability
Method: Even more advantageously, the compounds of formula (I) of the present invention are also endowed with a good permeability profile that, in its turn, can ensure a suitable bioavailability for an oral administration. The permeability was assessed in human Caco 2 cell line, an in vitro model that mimic human gastrointestinal barrier and so useful to predic oral absorption.
The permeability of the compounds of the present invention was evaluated performing the assay on Caco-2 cells monolayers (human colon adenocarcinoma immortalized cell) by measuring the transport of compound (absorption and secretion) in both directions: apical to basolateral direction (A>B) and basolateral to apical (B>A) with and without PgP inhibitor (Elacridar).
The cells, purched from ReadyCell in 96 well format (Cod. KRECE-CCR50), were cultured by the supplier for 21 day on transwell supports in DMEM 1 g/L glucose culture medium supplemented with Fetal Bovin Sierum (10%), Glutamine 200 mM (1%) and Penicillin 10000 U/ml-10 mg/ml Streptomycin (1%).
On day 21 of colture, cell monolayers integrity was verified by measuring the trans-epithelial electric resistance (TEER) using the EVOM equipment (Endohm, WPI, Germany) and studying the apparent permeability (Papp) of reference compounds (Sulpiride and Metoprolol). Furthermore, as a control, the Talinolol 10 uM (Pgp efflux substrate) with and without Elacridar in both directions was used.
The sample solution was prepared dissolving test compound in DMSO at the concentration of 10 mM and then diluted in the Assay Buffer (Hank's Balance Salt Solution) warmed at 37° C. before use, to give the 10 μM Compound working solution with and without 10 μM Elacridar. These working solutions were added to donor compartment (apical for A>B direction and basolateral for B>A direction) and Assay Buffer (Hank's Balance Salt Solution) to the receiver compartment (basolateral for A>B direction and apical for B>A direction). The plate was incubated at 37° C. for 120 min, all incubation were conducted in triplicates. At the end of incubation, samples from donor and receiver compartments were collected for HPLC-MS/MS analyses.
The permeability coefficients (Papp) in both directions: apical to basolateral (A>B) and basolateral to apical (B>A) with and without PgP inhibitor (Elacridar) was calculated in nm/sec, using the following equation:
[formula] • where: • Cr=measured concentration in the receiver well at the time t (expressed as IS ratio) • Vr=volume of the receiver well (ml) • t=time (sec) • A=membrane surface area (cm^2) • C0=initial donor concentration • Passive Papp is considered Papp A>B with PgP inhibitor Elacridar.

[2] = target: human recombinant LPA1 expressed in CHO cells (Homo sapiens (Human), UniProt Q92633); test: LPA1 antagonist FLIPR calcium assay in CHO-hLPA1 cells; format: cell-based; settings: range of activity; CHO-hLPA1, LPA EC80, Ca2+ mobilization; read-out: LPA1 IC50
Chain of human recombinant LPA1 expressed in CHO cells (Q92633 whole entry): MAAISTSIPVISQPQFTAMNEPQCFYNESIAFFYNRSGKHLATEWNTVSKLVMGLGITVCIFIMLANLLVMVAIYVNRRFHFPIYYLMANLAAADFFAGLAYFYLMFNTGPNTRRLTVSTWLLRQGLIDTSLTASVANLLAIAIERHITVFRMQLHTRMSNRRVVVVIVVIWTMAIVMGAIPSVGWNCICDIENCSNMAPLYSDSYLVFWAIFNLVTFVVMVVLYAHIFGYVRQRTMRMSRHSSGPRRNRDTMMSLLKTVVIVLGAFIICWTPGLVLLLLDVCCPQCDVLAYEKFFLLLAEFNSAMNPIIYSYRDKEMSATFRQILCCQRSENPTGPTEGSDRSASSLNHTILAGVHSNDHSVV
Method: The effectiveness of compounds of the present invention as LPA1 antagonists can be determined at the human recombinant LPA1 expressed in CHO cells, using a FLIPR assay in 384 well format.
CHO-hLPA1 cell lines are cultured in a humidified incubator at 5% CO2 in DMEM/F-12 (1:1) MIXTURE with 2 mM Glutamax, supplemented with 10% of Foetal Bovine Serum, 1 mM Sodium Pyruvate, 11 mM Hepes and 1× Penicillin/Streptomycin. […] Serial dilutions (1:3 or 1:4, 11 points CRC) of compounds are performed in 100% DMSO at 200× the final concentration. […] The final concentration of DMSO in the assay will be 0.5% in each well. Medium is removed by aspiration and cells are then incubated with 30 μl of a loading solution containing 5 μM of the cytoplasmic Ca2+ indicator Cal-520 AM in Assay Buffer containing 2.5 mM probenecid for 30 min at 37° C. incubator (cell loading). The loaded cell plates are transferred into the FLIPR instrument and calcium responses are monitored during the on-line addition protocols. For testing of compounds, after the cell loading, 10 μl/well of 4× antagonists' solution was added onto the cells. After 30 min pre-incubation (at 37° C.), 10 μl/well of 5× concentrated LPA EC80 was added and Ca2+ mobilization responses was followed during the on-line addition protocol. Intracellular peak fluorescence values subtracted by baseline fluorescence are exported and analysed to determine IC50 values, respectively. The calcium response is expressed as percentage of the maximal inhibition of the EC80 agonist response.
The raw data (peak height expressed as relative fluorescence units) are normalized and transformed into “percent of inhibition”. Curve fitting and pIC50 (−LogIC50) estimations are carried out using a four-parameter logistic model using XLfit Software.

Row | Compound | Papp at 120 min, 10 µM [1] | pIC50 [2] | inhibition at 10 min, 50 μM (BSEP)
1 | C[C@@H](OC(=O)Nc1ccsc1-c1ccc(NC(=O)C2CCCCC2C(=O)O)cc1)c1ccccc1Cl (single isomer, unassigned) [Example 7] | ≥ 1.5 ×10⁻⁶ cm/s | > 7.30 | ≤ 50%
2 | Cc1noc(-c2ccc(NC(=O)C3CCCCC3C(=O)O)cn2)c1NC(=O)O[C@H](C)c1ccccc1 (stereo in doubt) [Example 40, Cis-2-((6-(3-methyl-4-((((R)-1-phenylethoxy)carbonyl)amino)isoxazol-5-y1)pyridin-3-yl)carbamoyl)cyclohexane-1-carboxylic acid] | ≥ 1.5 ×10⁻⁶ cm/s | 6.60 to 7.30 | ≤ 50%
3 | Cc1noc(-c2ccc(NC(=O)[C@H]3CCCC[C@@H]3C(=O)O)cn2)c1NC(=O)O[C@H](C)c1ccccc1Cl [Example 16, (1S,2S)-2-((6-(4-((((R)-1-(2-chlorophenyl)ethoxy)carbonyl)amino)-3-methylisoxazol-5-yl)pyridin-3-yl)carbamoyl)cyclohexane-1-carboxylic acid] | ≥ 1.5 ×10⁻⁶ cm/s | – | ≤ 50%
4 | Cc1nc(-c2onc(C)c2NC(=O)O[C@H](C)c2ccccc2C(F)(F)F)ccc1NC(=O)[C@H]1CCCC[C@@H]1C(=O)O [Example 25, (1S,2S)-2-((2-methyl-6-(3-methyl-4-((((R)-1-(2-(trifluoromethyl)phenyl)ethoxy)carbonyl)amino)isoxazol-5-yl)pyridin-3-yl)carbamoy1)cyclohexane-1-carboxylic acid] | ≥ 1.5 ×10⁻⁶ cm/s | 6.60 to 7.30 | ≤ 50%
5 | Cc1nc(-c2onc(C)c2NC(=O)O[C@H](C)c2ccccc2)ccc1NC(=O)[C@H]1CCCC[C@@H]1C(=O)O [Example 27, (1S,2S)-2-((2-methyl-6-(3-methyl-4-((((R)-1-phenylethoxy)carbonyl)amino)isoxazol-5-yl)pyridin-3-yl)carbamoy1)cyclohexane-1-carboxylic acid] | ≥ 1.5 ×10⁻⁶ cm/s | – | ≤ 50%
6 | Cc1nc(-c2onc(C)c2NC(=O)O[C@H](C)c2ccccc2)ccc1NC(=O)C1CCCCC1C(=O)O (stereo partly drawn) [Example 39, Cis-2-((2-methyl-6-(3-methyl-4-((((R)-1-phenylethoxy)carbonyl)amino)isoxazol-5-yl)pyridin-3-yl)carbamoyl)cyclohexane-1-carboxylic acid] | ≥ 1.5 ×10⁻⁶ cm/s | – | ≤ 50%
7 | CCC[C@@H](C)OC(=O)Nc1c(C)noc1-c1ccc(NC(=O)[C@H]2CCCC[C@@H]2C(=O)O)c(C)n1 [Example 49, (1S,2S)-2-((2-methyl-6-(3-methyl-4-(((((R)-pentan-2-yl)oxy)carbonyl)amino)isoxazol-5-yl)pyridin-3-yl)carbamoyl)cyclohexane-1-carboxylic acid] | ≥ 1.5 ×10⁻⁶ cm/s | – | ≤ 50%
8 | Cc1noc(-c2ccc(NC(=O)[C@H]3CCCC[C@@H]3C(=O)O)cc2)c1NC(=O)O[C@H](C)c1ccccc1Cl [comparative Example A, (1S,2S)-2-({4-[3-methyl-4-({[(1R)-1-(2-chlorophenyl)ethoxy]carbonyl}amino)-1,2-oxazol-5-yl]phenyl}carbamoyl)cyclohexane-1-carboxylic acid, reference compound] | < 1.5 ×10⁻⁶ cm/s | – | > 70%

Second part, led by results:

Row | Papp at 120 min, 10 µM [1] | pIC50 [2] | Compound | inhibition at 10 min, 50 μM (BSEP)
9 | ≥ 1.5 ×10⁻⁶ cm/s | – | Cc1nc(-c2onc(C)c2NC(=O)O[C@H](C)c2ccccc2Cl)ccc1NC(=O)[C@H]1CCCC[C@@H]1C(=O)O [Example 1, (1S,2S)-2-((6-(4-((((R)-1-(2-chlorophenyl)ethoxy)carbonyl)amino)-3-methylisoxazol-5-yl)-2-methylpyridin-3-yl)carbamoyl)cyclohexane-1-carboxylic acid] | ≤ 50%
10 | ≥ 1.5 ×10⁻⁶ cm/s | – | Cc1nc(-c2onc(C)c2NC(=O)O[C@H](C)c2ccccc2Cl)ccc1NC(=O)[C@@H]1CCCC[C@H]1C(=O)O [Example 12, (1R,2R)-2-((6-(4-((((R)-1-(2-chlorophenyl)ethoxy)carbonyl)amino)-3-methylisoxazol-5-yl)-2-methylpyridin-3-yl)carbamoyl)cyclohexane-1-carboxylic acid] | ≤ 50%
11 | ≥ 1.5 ×10⁻⁶ cm/s | > 7.30 | Cc1nc(-c2onc(C)c2NC(=O)O[C@H](C)c2ccccc2F)ccc1NC(=O)[C@H]1CCCC[C@@H]1C(=O)O [Example 24, (1S,2S)-2-((6-(4-((((R)-1-(2-fluorophenyl)ethoxy)carbonyl)amino)-3-methylisoxazol-5-yl)-2-methylpyridin-3-yl)carbamoyl)cyclohexane-1-carboxylic acid] | ≤ 50%
12 | ≥ 1.5 ×10⁻⁶ cm/s | > 7.30 | Cc1nc(-c2onc(C)c2NC(=O)O[C@H](C)c2ccccc2Br)ccc1NC(=O)[C@H]1CCCC[C@@H]1C(=O)O [Example 28, (1S,2S)-2-((6-(4-((((R)-1-(2-bromophenyl)ethoxy)carbonyl)amino)-3-methylisoxazol-5-yl)-2-methylpyridin-3-yl)carbamoyl)cyclohexane-1-carboxylic acid] | –
13 | ≥ 1.5 ×10⁻⁶ cm/s | – | Cc1ccccc1[C@@H](C)OC(=O)Nc1c(C)noc1-c1ccc(NC(=O)[C@H]2CCCC[C@@H]2C(=O)O)c(C)n1 [Example 32, (1S,2S)-2-((2-methyl-6-(3-methyl-4-((((R)-1-(o-toly1)ethoxy)carbonyl)amino)isoxazol-5-yl)pyridin-3-yl)carbamoyl)cyclohexane-1-carboxylic acid] | ≤ 50%
